Measurements: article PMC6721765, “Synthesis of Daidzein Glycosides, α-Tocopherol Glycosides, Hesperetin Glycosides by Bioconversion and Their Potential for Anti-Allergic Functional-Foods and Cosmetics” (Molecules, 2019)
Like-named read-outs stand apart in the source and are kept apart here.

Columns and labels:
[1] = system: rat peritoneal mast cells; test: Inhibition of compound 48/80-induced histamine release from rat peritoneal mast cells; format: cell-based; details: Mast cell
Method: The %inhibition of hesperetin 3′-β-glucoside (9) and hesperetin 7-β-glucoside (10) was higher than that of hesperetin (8). […] The inhibitory activity toward histamine release of hesperetin 7-β-gentiobioside (12) was stronger than hesperetin diglucoside 11. The anti-allergic activities were examined at pH 7.4 and 37 °C according to the reported methods. The pH and temperature of the reaction mixture may have an effect on anti-allergic activities. Effects of pH and temperature on anti-allergic activities of the obtained glycosides should be investigated and reported on in the near future.
The effects of daidzein, α-tocopherol, hesperetin, and their glycosides on compound 48/80-induced histamine release from rat peritoneal mast cells were examined as follows. Peritoneal mast cells were collected from the abdominal cavities of rats (Male Wistar rats, Nippon SLC) and purified to a level higher than 95%. The purified mast cells were suspended in a physiological buffered solution (PBS) containing 145 mM NaCl, 2.7 mM KCl, 1.0 mM CaCl2, 5.6 mM glucose, and 20 mM 4-(2-hydroxyethyl)-1-piperazineethanesulfonic acid (HEPES) (pH 7.4) to give approximately 10^4 mast cells/mL. Cell viability was always greater than 90% as judged by the trypan blue exclusion test. Mast cells were preincubated with the test compound (1 μM) for 15 min at 37 °C, and subsequently exposed to compound 48/80 at 0.35 μg/mL. Histamine release was determined by a fluorometric assay, and was expressed as a percentage of total histamine.

[2] = target: Mushroom tyrosinase (EC 1.14.18.1); test: Tyrosinase assay (dopachrome formation at 475 nm); format: biochemical; details: L-DOPA or L-tyrosine as substrate, pH 6.8, 30 °C, mean ± standard deviation from triplicate experiments, read-out: Tyrosinase Inhibitory Activity IC50
Method: Mushroom tyrosinase (EC 1.14.18.1) (Sigma-Aldrich Chemical Co., St. Louis, MO, USA) was used for the tyrosinase assay, with either L-DOPA or L-tyrosine as a substrate. In spectrophotometric experiments, enzyme activity was taken as the initial velocity (Vi) monitored by observing dopachrome formation at 475 nm with a UV spectrophotometer at 30 °C. All samples were dissolved in ethanol at 10 mM. First, 200 μL of a 2.7 mM L-tyrosine or 5.4 mM L-DOPA aqueous solution was mixed with 2687 μL of 0.25 M phosphate buffer (pH 6.8). Next, 100 μL of the sample solution and 13 μL of the same phosphate buffer solution containing mushroom tyrosinase (144 units) were added to the mixture.

[3] = test compound 1 μM, preincubated 15 min at 37 °C, pH 7.4, compound 48/80 at 0.35 μg/mL, Male Wistar rat peritoneal mast cells, read-out: Histamine Release-Inhibiting Activity / %inhibition
[4] = Rattus norvegicus, pH 7.4, read-out: Histamine Release-Inhibiting Activity / %inhibition

SMILES | IC50 [2] [µM] | inhibition at 1 µM [1, 3] [%] | inhibition at 1 µM [1, 4] [%]
Cc1c(C)c2c(c(C)c1O)CC[C@@](C)(CCC[C@H](C)CCC[C@H](C)CCCC(C)C)O2 [Compound 6, α-tocopherol] | 510 ± 108 | 61 | 
O=c1c(-c2ccc(O)cc2)coc2cc(O[C@@H]3O[C@H](CO)[C@H](O)[C@H](O)[C@H]3O)ccc12 [Compound 5, daidzein 7-β-galactoside] | 102 ± 39 |  | 76
O=c1c(-c2ccc(O)cc2)coc2cc(O)ccc12 [Compound 1, daidzein] | 392 ± 88 | 58 | 
O=c1c(-c2ccc(O)cc2)coc2cc(OC3OC(CO)C(O)C(O)C3O)ccc12 (stereo not drawn) [Compound 2, daidzein 7-β-glucoside] | 303 ± 45 |  | 62
COc1ccc([C@@H]2CC(=O)c3c(O)cc(O)cc3O2)cc1O [Compound 8, hesperetin] | 437 ± 76 | 38 | 
O=c1c(O)c(-c2ccc(O)cc2)oc2cc(O)cc(O)c12 [Kaempferol, reference compound] |  | 80 | 
COc1ccc(C2CC(=O)c3c(O)cc(OC4OC(CO)C(O)C(O)C4O)cc3O2)cc1OC1OC(CO)C(O)C(O)C1O (stereo not drawn) [Compound 11, hesperetin 3′,7-β-diglucoside] | 176 ± 35 | 63 | 
COc1ccc(C2CC(=O)c3c(O)cc(OC4OC(CO)C(O)C(O)C4O)cc3O2)cc1O (stereo not drawn) [Compound 10, hesperetin 7-β-glucoside] | 318 ± 27 | 45 | 
O=c1c(-c2ccc(O)cc2)coc2cc(OC3OC(COC4OC(CO)C(O)C(O)C4O)C(O)C(O)C3O)ccc12 (stereo not drawn) [Compound 3, daidzein 7-β-gentiobioside] | 280 ± 33 | 67 | 

Further lines, with some results ahead:

IC50 [2] [µM] | SMILES | inhibition at 1 µM [1, 3] [%] | inhibition at 1 µM [1, 4] [%]
125 ± 41 | O=c1c(-c2ccc(O[C@@H]3O[C@H](CO)[C@H](O)[C@H](O)[C@H]3O)cc2)coc2cc(O)ccc12 [Compound 4, daidzein 4′-β-galactoside] | 70 | 
355 ± 32 | COc1ccc(C2CC(=O)c3c(O)cc(O)cc3O2)cc1OC1OC(CO)C(O)C(O)C1O (stereo not drawn) [Compound 9, hesperetin 3′-β-glucoside] | 40 | 
139 ± 14 | COc1ccc(C2CC(=O)c3c(O)cc(OC4OC(COC5OC(CO)C(O)C(O)C5O)C(O)C(O)C4O)cc3O2)cc1O (stereo not drawn) [Compound 12, hesperetin 7-β-gentiobioside] | 69 | 
54 ± 25 | Cc1c(C)c2c(c(C)c1O[C@@H]1O[C@H](CO)[C@H](O)[C@H](O)[C@H]1O)CC[C@@](C)(CCC[C@H](C)CCC[C@H](C)CCCC(C)C)O2 [Compound 7, α-tocopherol 6-β-galactoside] | 82 | 
